Source: ChEMBL document CHEMBL3808308, “Synergistic potentiation of (-)-lomaiviticin A cytotoxicity by the ATR inhibitor VE-821” (Bioorg Med Chem Lett, 2016)
The source made the active and inactive calls. No cut-off for these calls is given here.

Columns and labels:
K562 [1] = test: Cytotoxicity against human K562 cells assessed as effect on cell viability at 0.05 to 0.5 nM after 24 to 48 hrs by cell titer-glo luminescence assay; format: functional
K562 [2] = test: Cytotoxicity against human K562 cells assessed as decrease in cell viability at 1 nM after 48 hrs by cell titer-glo luminescence assay; format: functional
K562 [3] = test: Induction of DNA double-strand breaks in human K562 cells at 50 to 500 pM after 24 hrs by neutral comet assay; format: functional, cell-based
K562 [4] = test: Induction of apoptosis in human K562 cells assessed as gammaH2AX/53BP1 levels up to 250 pM after 48 hrs by DAPI staining based immunofluorescence microscopy; format: functional, cell-based
[5] = Cytotoxicity against BRCA2-deficient chinese hamster VC8 cells assessed as decrease in cell viability by clonogenic survival assay; format: functional; details: Cricetulus griseus, V-C8; read-out: LC50 (the source's name)
U-251 [6] = test: Cytotoxicity against PTEN-deficient human U251 cells assessed as decrease in cell viability by clonogenic survival assay; format: functional; details: read-out: LC50 (the source's name)
[7] = Selectivity ratio of LC50 for chinese hamster VC8 cells expressing BRCA2 to LC50 for BRCA2-deficient chinese hamster VC8 cells; format: functional, Cricetulus griseus
U-251 [8] = test: Selectivity ratio of LC50 for human U251 cells expressing PTEN to LC50 for PTEN-deficient human U251 cells; format: functional
K562 [9] = test: Potentiation of 250 pM (-)-lomaiviticin A-induced cytotoxicity against human K562 cells assessed as decrease in cell viability at 10 uM after 48 hrs by cell titer-glo luminescence assay; format: functional, cell-based
K562 [10] = test: Cytotoxicity against human K562 cells assessed as decrease in cell viability up to 2.5 to 10 uM after 24 to 48 hrs by cell titer-glo luminescence assay; format: cell-based
K562 [11] = test: Potentiation of 0.0050 uM (-)-lomaiviticin A-induced cytotoxicity against human K562 cells assessed as fraction ratio affected at 5 uM after 24 hrs by cell titer-glo luminescence assay; format: functional
K562 [12] = test: Potentiation of 2.5x10'-5 uM (-)-lomaiviticin A-induced cytotoxicity against human K562 cells assessed as combination index at 5 uM after 24 hrs by cell titer-glo luminescence assay; format: functional
K562 [13] = test: Potentiation of 5x10'-5 uM (-)-lomaiviticin A-induced cytotoxicity against human K562 cells assessed as combination index at 5 uM after 24 hrs by cell titer-glo luminescence assay; format: functional
K562 [14] = test: Potentiation of 2.5x10'-4 uM (-)-lomaiviticin A-induced cytotoxicity against human K562 cells assessed as combination index at 5 uM after 24 hrs by cell titer-glo luminescence assay; format: functional
K562 [15] = test: Potentiation of 5x10'-4 uM (-)-lomaiviticin A-induced cytotoxicity against human K562 cells assessed as combination index at 5 uM after 24 hrs by cell titer-glo luminescence assay; format: functional
K562 [16] = test: Potentiation of 0.0025 uM (-)-lomaiviticin A-induced cytotoxicity against human K562 cells assessed as combination index at 5 uM after 24 hrs by cell titer-glo luminescence assay; format: functional
K562 [17] = test: Potentiation of 0.0050 uM (-)-lomaiviticin A-induced cytotoxicity against human K562 cells assessed as combination index at 5 uM after 24 hrs by cell titer-glo luminescence assay; format: functional
K562 [18] = test: Potentiation of 2.5x10'-5 uM (-)-lomaiviticin A-induced cytotoxicity against human K562 cells assessed as fraction ratio affected at 5 uM after 48 hrs by cell titer-glo luminescence assay; format: functional
K562 [19] = test: Potentiation of 2.5x10'-4 uM (-)-lomaiviticin A-induced cytotoxicity against human K562 cells assessed as fraction ratio affected at 5 uM after 48 hrs by cell titer-glo luminescence assay; format: functional
K562 [20] = test: Potentiation of 5x10'-4 uM (-)-lomaiviticin A-induced cytotoxicity against human K562 cells assessed as fraction ratio affected at 5 uM after 48 hrs by cell titer-glo luminescence assay; format: functional
K562 [21] = test: Potentiation of 0.0025 uM (-)-lomaiviticin A-induced cytotoxicity against human K562 cells assessed as fraction ratio affected at 5 uM after 48 hrs by cell titer-glo luminescence assay; format: functional
K562 [22] = test: Potentiation of 0.0050 uM (-)-lomaiviticin A-induced cytotoxicity against human K562 cells assessed as fraction ratio affected at 5 uM after 48 hrs by cell titer-glo luminescence assay; format: functional
K562 [23] = test: Potentiation of 2.5x10'-5 uM (-)-lomaiviticin A-induced cytotoxicity against human K562 cells assessed as combination index at 5 uM after 48 hrs by cell titer-glo luminescence assay; format: functional
K562 [24] = test: Potentiation of 5x10'-5 uM (-)-lomaiviticin A-induced cytotoxicity against human K562 cells assessed as combination index at 5 uM after 48 hrs by cell titer-glo luminescence assay; format: functional
K562 [25] = test: Potentiation of 2.5x10'-4 uM (-)-lomaiviticin A-induced cytotoxicity against human K562 cells assessed as combination index at 5 uM after 48 hrs by cell titer-glo luminescence assay; format: functional
K562 [26] = test: Potentiation of 5x10'-4 uM (-)-lomaiviticin A-induced cytotoxicity against human K562 cells assessed as combination index at 5 uM after 48 hrs by cell titer-glo luminescence assay; format: functional
K562 [27] = test: Potentiation of 0.0025 uM (-)-lomaiviticin A-induced cytotoxicity against human K562 cells assessed as combination index at 5 uM after 48 hrs by cell titer-glo luminescence assay; format: functional
K562 [28] = test: Potentiation of 0.0050 uM (-)-lomaiviticin A-induced cytotoxicity against human K562 cells assessed as combination index at 5 uM after 48 hrs by cell titer-glo luminescence assay; format: functional

CC[C@@]1(O[C@H]2C[C@H](OC)[C@@H](O)[C@H](C)O2)[C@H](O[C@H]2C[C@@H](O)[C@H](N(C)C)[C@@H](C)O2)c2c(c3c(=O)c4c(O)ccc(O)c4c(=O)c=3c2=[N+]=[N-])C(=O)[C@@H]1[C@H]1C(=O)c2c(c(=[N+]=[N-])c3c(=O)c4c(O)ccc(O)c4c(=O)c2=3)[C@@H](O[C@H]2C[C@@H](O)[C@H](N(C)C)[C@@H](C)O2)[C@@]1(CC)O[C@H]1C[C@H](OC)[C@@H](O)[C@H](C)O1
Activity (K562 [1]): <5%
Activity (K562 [2]): 34%
Activity (K562 [3]): inactive
Activity (K562 [4]): Active
CC50 [5]: 1.5 pM
CC50 (U-251 [6]): 2 pM
RatioLC50 [7]: >11.6
RatioLC50 (U-251 [8]): >11.6
Activity (K562 [9]): Active

O=C(c1cc(Cc2n[nH]c(=O)c3ccccc23)ccc1F)N1CCN(C(=O)C2CC2)CC1 [OLAPARIB]
Activity (K562 [10]): Non-toxic
Ratio (K562 [11]): 0.03638
CI (K562 [12]): 0.182
CI (K562 [13]): 28.4346
CI (K562 [14]): 29.7935
CI (K562 [15]): 31.4921
CI (K562 [16]): 45.0812
CI (K562 [17]): 1.234
Ratio (K562 [18]): 0.00109
Ratio (K562 [19]): 0.02866
Ratio (K562 [20]): 0.1238
Ratio (K562 [21]): 0.3508
Ratio (K562 [22]): 0.557
CI (K562 [23]): 0.138
CI (K562 [24]): 29.2295
CI (K562 [25]): 0.2699
CI (K562 [26]): 0.358
CI (K562 [27]): 1.277
CI (K562 [28]): 2.076
